Measured values published in US12507703B2, “Methods, devices and compositions for preserving human milk” (The Trustees of Princeton University, priority 2023, dated 2025).
Several values for one entry are separate records, joined by “and”; a condition that tells them apart may be missing. Identical values can stand only once. Counter-ions that a name gives are not always drawn.

System: lipase
Experiment: Lipase/lipolysis assay (EnzChek Lipase Substrate, quenched BODIPY-fatty acid conjugate) on stored human milk; note: test concentration or dose not given here

Compound	Lipase (RFU)
O=S(O)(O)=S [Thiosulfate]	1139.701 RFU
O=C1CCCCCCCCCCCCCCO1 [ω-Pentadecalactone]	959.0542 RFU
C[C@]12CC[C@H](O)C[C@@H]1CC[C@@H]1[C@@H]2CC[C@]2(C)C(=O)CC[C@@H]12 [Epiandrosterone]	760.9004 RFU
CC(C)=CCc1c(O)cc(O)c2c(=O)c(-c3ccc(O)cc3)coc12 [Lupiwighteone]	1206.447 RFU
Nc1c(O)cccc1C(=O)CC(N)C(=O)O (centres unmarked) [Compound 3-Hydroxykynurenine]	1303.264 RFU
CN1[C@@H]2CC[C@H]1C[C@@H](OC(=O)C(CO)c1ccccc1)C2 (some centres unmarked) [Atropine (sulfate monohydrate)]	1099.713 RFU
C=C1CC[C@]2(C)CC[C@]3(C)[C@H](CC[C@@H]4[C@@]5(C)CC[C@H](O)C(C)(C)[C@@H]5CC[C@]43C)[C@H]2[C@@H]1C [Taraxasterol]	974.5848 RFU
OC[C@@]12OC[C@@H](O1)[C@@H](O)[C@@H](O)[C@@H]2O [Sedoheptulosan]	1068.783 RFU
C=CC/C(=N/OS(=O)(=O)[O-])S[C@@H]1OC(CO)[C@@H](O)C(O)C1O.[K+] (some centres unmarked) [Sinigrin]	1002.884 RFU
CCC(C)N (centres unmarked) [Sec-Butylamine]	784.9928 RFU
C1CSCSC1 [1,3-Dithiane]	1179.502 RFU
NC(=O)NCCC[C@H](N)C(=O)O [L-Citrulline]	1167.04 RFU and 809.9531 RFU
OC[C@H]1O[C@@H](Oc2cc3c(O)cc(O)cc3[o+]c2-c2ccc(O)c(O)c2)[C@H](O)[C@@H](O)[C@@H]1O.[Cl-] [Kuromanin (chloride)]	1192.7 RFU
O=c1cc(-c2ccc(O)cc2)oc2cc(O)c([C@@H]3O[C@H](CO)[C@@H](O)[C@H](O)[C@H]3O[C@@H]3OC[C@H](O)[C@H](O)[C@H]3O)c(O)c12 [Isovitexin 2″-O-arabinoside]	1033.269 RFU
O=P([O-])([O-])O[C@H]1O[C@H](CO)[C@H](O)[C@H](O)[C@H]1O.[K+].[K+] [Galactose 1-phosphate Potassium salt]	1112.021 RFU
Chondroitin (sulfate)	714.418 RFU
N#CCCN [β-Aminopropionitrile]	985.2024 RFU
CCCCCCCCCCCCCCC[C@@H](O)[C@@H](N)CO [D-Erythro-dihydrosphingosine]	1051.007 RFU
CCOC(=O)c1ccc(O)c(OC)c1 [Ethyl Vanillate]	981.4431 RFU
O=c1c(O[C@@H]2O[C@H](CO[C@@H]3O[C@H](CO)[C@@H](O)[C@H](O)[C@H]3O)[C@@H](O)[C@H](O)[C@H]2O)c(-c2ccc(O)cc2)oc2cc(O)cc(O)c12 [Kaempferol 3-O-gentiobioside]	1150.858 RFU
Isoliquiritin apioside	821.8958 RFU
COc1cc(-c2[o+]c3cc(O)cc(O)c3cc2O)cc(O)c1O.[Cl-] [Petunidin (chloride)]	1018.887 RFU
CCCCCC1=C(C)CCC1=O [Dihydrojasmone]	884.3631 RFU

Compound	Lipase (RFU)
C[C@]12CC[C@@H]3c4cc(O)c(O)cc4CC[C@H]3[C@@H]1CC[C@@H]2O [Compound 2-Hydroxyestradiol]	1214.209 RFU
O=C(O)c1ccc2ccccc2n1 [Quinoline-2-carboxylic acid]	994.8984 RFU
O=c1c(O)c(-c2ccc(O)c(O)c2)oc2cc(O[C@@H]3O[C@H](CO)[C@@H](O)[C@H](O)[C@H]3O)cc(O)c12 [Quercimeritrin]	857.409 RFU
O.O.O=c1c(O)c(-c2ccc(O)c(O)c2)oc2cc(O)cc(O)c12 [Quercetin (dihydrate)]	1081.937 RFU
CC(C)=CCC[C@](C)(O[C@@H]1O[C@H](CO)[C@@H](O)[C@H](O)[C@H]1O)[C@H]1CC[C@]2(C)[C@@H]1[C@H](O)C[C@@H]1[C@@]3(C)CC[C@H](O)C(C)(C)[C@@H]3[C@@H](O[C@@H]3O[C@H](CO)[C@@H](O)[C@H](O)[C@H]3O[C@@H]3OC[C@@H](O)[C@H](O)[C@H]3O)C[C@]12C [Notoginsenoside R1]	899.6021 RFU
CC(C)=CCC[C@](C)(O[C@@H]1O[C@H](CO[C@@H]2O[C@H](CO)[C@@H](O)[C@H](O)[C@H]2O)[C@@H](O)[C@H](O)[C@H]1O)[C@H]1CC[C@]2(C)[C@@H]1[C@H](O)C[C@@H]1[C@@]3(C)CC[C@H](O[C@@H]4O[C@H](CO)[C@@H](O)[C@H](O)[C@H]4O[C@@H]4O[C@H](CO)[C@@H](O)[C@H](O)[C@H]4O)C(C)(C)[C@@H]3CC[C@]12C [Ginsenoside Rb1]	830.8489 RFU
O=C(O)C[C@H](O)C(=O)O [(S)-Malic acid]	1015.072 RFU and 818.4693 RFU
O=C(O)COc1ccccc1 [Phenoxyacetic acid]	872.4796 RFU and 824.9859 RFU
CC(C)=CCC[C@](C)(O[C@@H]1O[C@H](CO)[C@@H](O)[C@H](O)[C@H]1O)[C@H]1CC[C@]2(C)[C@@H]1[C@H](O)C[C@@H]1[C@@]3(C)CC[C@H](O)C(C)(C)[C@@H]3[C@@H](O)C[C@]12C [Ginsenoside F1]	975.1974 RFU
(−)-Fenchone	812.4614 RFU
NC(=O)c1ccc[n+]([C@@H]2O[C@H](COP(=O)([O-])OP(=O)(O)OC[C@H]3O[C@@H](n4cnc5c(N)ncnc54)[C@H](OP(=O)([O-])[O-])[C@@H]3O)[C@@H](O)[C@H]2O)c1.[Na+].[Na+] [NADP (disodium salt)]	762.8961 RFU
NCCCC[C@H](N)C(=O)O [L-Lysine]	909.5913 RFU and 1084.77 RFU and 881.5409 RFU and 1310.906 RFU
NC(=O)NCCC(=O)O [Ureidopropionic acid]	1035.138 RFU
O=c1ccc2c(O)c3ccoc3cc2o1 [Bergaptol]	1060.003 RFU
COc1cc(C[C@H](C)[C@H](C)Cc2ccc3c(c2)OCO3)ccc1O [Macelignan]	621.9317 RFU
Riboflavin (phosphate sodium)	1091.899 RFU
C[C@H](CCC(=O)NCCS(=O)(=O)O)[C@H]1CC[C@H]2[C@@H]3[C@H](O)C[C@@H]4C[C@H](O)CC[C@]4(C)[C@H]3C[C@H](O)[C@]12C [Taurocholic acid (sodium salt hydrate)]	1148.675 RFU
O=C([O-])[O-].[Ca+2] [Calcium carbonate]	646.797 RFU
Nc1ncnc2c1ncn2[C@@H]1O[C@H](COP(=O)(O)O)[C@@H](O)[C@H]1O.O [Adenosine 5′-monophosphate monohydrate]	920.9967 RFU
CC(C)[C@H](C)[C@@H](O)[C@H](O)[C@@H](C)[C@H]1CC[C@H]2[C@@H]3COC(=O)[C@H]4C[C@H](O)[C@H](O)C[C@]4(C)[C@H]3CC[C@]12C [Brassinolide]	945.8414 RFU
O=C([O-])[C@H](O)[C@@H](O)[C@H](O)[C@H](O)CO.[Na+] [Gluconate (sodium)]	1019.914 RFU
C=C[C@@H](O)C#CC#C[C@@H](O)/C=C\CCCCCCC [Falcarindiol]	827.8455 RFU
N[C@@H](CS)C(=O)NCC(=O)O.O=C(O)C(F)(F)F [Cysteinylglycine (TFA)]	954.0897 RFU

Compound	Lipase (RFU)
O=C(/C=C/c1ccc(O)cc1)CC(=O)/C=C/c1ccc(O)cc1 [Bisdemethoxycucurmin]	967.3982 RFU
OP(O)(O)=S [Thiophosphate]	918.3175 RFU and 750.1825 RFU
N[C@H](CCC(=O)O)C(=O)O [D-Glutamic Acid]	1176.72 RFU
COc1ccc(-c2cc(=O)c3c(O)c(OC)c(OC)c(OC)c3o2)cc1OC [Compound 5-O-Demethylnobiletin]	860.071 RFU
β Glucan - 1,3/1,6	942.984 RFU
COC(=O)[C@]1(C)CC[C@]2(C(=O)O[C@@H]3O[C@H](CO)[C@@H](O)[C@H](O)[C@H]3O)CC[C@]3(C)C(=CC[C@@H]4[C@@]5(C)C[C@H](O)[C@H](O[C@@H]6OC[C@@H](O[C@@H]7O[C@H](CO)[C@@H](O)[C@H](O)[C@H]7O)[C@H](O)[C@H]6O)[C@@](C)(CO)C5CC[C@]43C)[C@H]2C1 (some centres unmarked) [Esculentoside H]	1175.483 RFU
C[C@]12CC[C@H]3[C@@H](CC=C4C[C@@H](O)CC[C@@]43C)[C@@H]1CC[C@@H]2C(=O)CO [21-Hydroxypregnenolone]	955.7541 RFU
Cl.N=C(N)NCCC[C@H](N)C(=O)O [L-Arginine (hydrochloride)]	1273.102 RFU
CC1(C)CC[C@]2(C(=O)O)CC[C@]3(C)C(=CC[C@@H]4[C@@]5(C)C[C@@H](O)[C@H](O)C(C)(C)[C@@H]5CC[C@]43C)[C@@H]2C1 [Maslinic acid]	1120.923 RFU
CCCCCCCC/C=C\CCCCCCCC(=O)O[C@H](CC(=O)[O-])C[N+](C)(C)C [Oleoylcarnitine]	870.8673 RFU
CCCCCCCCCCCCCCCC(=O)OC[C@H](COP(=O)([O-])OCC[N+](C)(C)C)OC(=O)CCCCCCCCCCCCCCC [DPPC]	959.6761 RFU
O=c1cc(-c2ccc(O)c(O)c2)oc2c([C@@H]3O[C@H](CO)[C@@H](O)[C@H](O)[C@H]3O)c(O)cc(O)c12 [Orientin]	715.9231 RFU
O=C(O)CCCC(=O)O [Glutaric acid]	944.8681 RFU
Mannan	1091.353 RFU
CCCCCCCCCC(=O)OCC(COC(=O)CCCCCCCCC)OC(=O)CCCCCCCCC [Trisdecanoin]	969.1379 RFU
O=C([O-])c1ccccc1O.[Na+] [Sodium Salicylate]	847.8959 RFU and 820.8026 RFU
CN1[C@@H]2CC[C@H]1CC(=O)C2 [Tropinone]	856.4439 RFU
(−)-Epigallocatechin Gallate	333.087 RFU
C=C1CC/C=C(\C)CC[C@@H]2[C@@H]1CC2(C)C [β-Caryophyllene]	881.1948 RFU
Cc1nc2ccccc2o1 [Compound 2-Methylbenzoxazole, 2-Methylbenzoxazole]	887.776 RFU
O=C([O-])O.[K+] [Potassium bicarbonate]	726.638 RFU
O=C(O)[C@H]1O[C@@H](Oc2cc(O)c3c(=O)cc(-c4ccc(O)cc4)oc3c2)[C@H](O)[C@@H](O)[C@@H]1O [Apigenin-7-glucuronide]	991.8672 RFU
